Assay [1] has as its system mammalian GABAA receptor with α1 subunit XY segment replaced with UNC-49B XY sequence. Put plainly: Neurosteroid positive modulation, subunits expressed in Xenopus oocytes. It is filed as cell-based. As to conditions: altered receptor compared to the wild-type receptor. How it is done:
It has been shown that one variant of the XY segment conferred high PS sensitivity (the UNC-49C sequence) (Example 1), while another variant of the XY segment conferred low PS sensitivity (the UNC-49B sequence). Subunits of mammalian GABAA receptors also contain an XY segment. It was tested whether neurosteroid sensitivity of mammalian receptors similarly depended on their XY segments. The mammalian XY segment (within the α1 subunit) was replaced with the low-sensitivity UNC-49B XY sequence variant. […] Both positive and negative modulation of GABAA receptors are therapeutically beneficial.

The target in assay [2] is T1, UNC-49B homomer (GABA receptor) (Caenorhabditis elegans, UniProt G5ECD3).
T1 construct: homopentamer; two-electrode voltage clamp
Put plainly: Pentobarbital enhancement of UNC-49B homomer (FIG. 14B, allosteric regulation of UNC-49). The assay is classed as cell-based. How it is done:
(§1) Like their mammalian homologs, UNC-49 subunits contain a large extracellular amino terminal region, and four transmembrane domains labeled M1-M4.
(§2) Electrophysiology: Plasmids containing wild-type and mutagenized GABAA receptor subunits were linearized and transcribed in vitro using T3 RNA polymerase (mMessage mMachine T3 kit, Ambion, Austin Tex.). UNC-49B mRNA was injected into Xenopus laevis oocytes at 0.5 μg/μl either alone, or in a mixture with 0.5 μg/μl UNC-49C. […] The injection volume ranged between 27.6 nl to 50.6 nl. […] Cells were voltage clamped at −60 mV. All recordings were performed at room temperature.

In assay [3] the target is T2, UNC-49B homomer (Caenorhabditis elegans, UniProt G5ECD3). It is filed as cell-based, C. elegans. The procedure: as §2
A further assay relates to B-β3 chimera. Briefly: Pregnanolone response of B-β3 chimera. The assay is classed as cell-based. From the text:
A) Structure of the B-β3 chimera. B) The B-β3 chimera is enhanced by pregnanolone.

The target in assay [4] is T2, UNC-49B homomer. To be noted: UNC-49B homomers; Bamber et al., 2003; cited from earlier work.
In assay [5] the target is T3, UNC-49B/C heteromer (Caenorhabditis elegans, UniProt G5ECD3+G5EE10). As to conditions: UNC-49B/C heteromers; Bamber et al., 2003; cited from earlier work.
In a further assay the test system is UNC-49B-PS7. The assay is classed as cell-based, C. elegans. As to conditions: UNC-49B-PS7 versus UNC-49B/C heteromer; at EC50 GABA. How it is done:
as §2

The target in a further assay is Y chimera (Caenorhabditis elegans, UniProt G5ECD3, I265S/I267V/I270L/N259Q/N305R/T269V/V261F/V273I). It is filed as cell-based, C. elegans. As to conditions: Y chimera compared with wild-type UNC-49B and QF-R subunit; at EC50 GABA. How it is done:
as §2

Assay [6] addresses T3, UNC-49B/C heteromer. The assay is classed as cell-based. As to conditions: UNC-49B/C heteromers. The procedure:
as §2

The target of a further assay is QF-R (Caenorhabditis elegans, UniProt G5ECD3, N259Q/N305R/V261F). The assay is classed as cell-based, C. elegans. As to conditions: QF-R subunit compared with wild-type UNC-49B and Y chimera; at EC50 GABA. How it is done:
as §2
The conserved residues were tested in the UNC-49C M1 domain in a similar way. […] To test the importance of these conserved residues, they were substituted into an UNC-49B subunit with the linker mutation N305R to create the ‘QF-R’ subunit (FIG. 3c).

For assay [7], the target named is T4, UNC-49B/C heteromer (GABA receptor) (Caenorhabditis elegans, UniProt G5ECD3+G5EE10).
T4 construct: two-electrode voltage clamp
Put plainly: Picrotoxin inhibition of GABA-evoked currents, UNC-49B/C heteromer (FIG. 14A; two-electrode voltage clamp, Xenopus oocytes). As to conditions: co-application of GABA and picrotoxin. The assay is classed as cell-based. The procedure: as §1, §2

Assay [8] addresses T1, UNC-49B homomer (GABA receptor). Put plainly: Picrotoxin inhibition of GABA-evoked currents, UNC-49B homomer (FIG. 14A; two-electrode voltage clamp, Xenopus oocytes). It is filed as cell-based. To be noted: co-application of GABA and picrotoxin. The procedure:
as §1, §2
For orientation: In two-electrode clamp one electrode senses voltage and the other passes current.

Like-named read-outs stand apart in the source and are kept apart here.

T2 sequence (G5ECD3 entry or part of it): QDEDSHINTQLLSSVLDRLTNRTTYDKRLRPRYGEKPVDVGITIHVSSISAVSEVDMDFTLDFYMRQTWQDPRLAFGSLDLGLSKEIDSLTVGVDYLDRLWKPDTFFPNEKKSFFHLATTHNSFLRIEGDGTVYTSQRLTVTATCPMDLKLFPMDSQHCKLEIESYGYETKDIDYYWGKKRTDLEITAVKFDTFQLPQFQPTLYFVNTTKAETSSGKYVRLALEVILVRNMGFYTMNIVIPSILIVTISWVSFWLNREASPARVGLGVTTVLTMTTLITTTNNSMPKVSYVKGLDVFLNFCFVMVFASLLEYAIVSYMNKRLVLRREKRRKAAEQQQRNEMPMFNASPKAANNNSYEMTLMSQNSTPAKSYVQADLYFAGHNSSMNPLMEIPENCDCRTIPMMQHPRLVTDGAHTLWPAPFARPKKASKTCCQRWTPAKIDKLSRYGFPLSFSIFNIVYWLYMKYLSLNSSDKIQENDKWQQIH
T3 sequence (G5EE10 entry or part of it): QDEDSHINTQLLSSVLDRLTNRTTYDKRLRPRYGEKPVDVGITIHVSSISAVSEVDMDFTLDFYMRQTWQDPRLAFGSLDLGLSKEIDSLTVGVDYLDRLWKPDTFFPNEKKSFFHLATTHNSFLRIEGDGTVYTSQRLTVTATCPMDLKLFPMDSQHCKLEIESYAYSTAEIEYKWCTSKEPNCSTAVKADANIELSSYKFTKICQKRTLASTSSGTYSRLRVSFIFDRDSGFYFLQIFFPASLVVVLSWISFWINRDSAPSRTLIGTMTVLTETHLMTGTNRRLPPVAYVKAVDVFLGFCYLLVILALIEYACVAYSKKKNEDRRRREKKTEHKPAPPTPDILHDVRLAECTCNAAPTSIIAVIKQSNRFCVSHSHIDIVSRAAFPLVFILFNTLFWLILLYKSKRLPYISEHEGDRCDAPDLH
T3 sequence (G5ECD3 entry or part of it): as the sequence (G5ECD3 entry or part of it) above
T1 sequence (G5ECD3 23-506): as the sequence (G5ECD3 entry or part of it) above
Sequence of QF-R (G5ECD3 23-506, stated change not applied): as the sequence (G5ECD3 entry or part of it) above
T4 sequence (G5ECD3 23-506): as the sequence (G5ECD3 entry or part of it) above
T4 sequence (G5EE10 entry or part of it): as the sequence (G5ECD3 entry or part of it) above
Sequence of Y chimera (G5ECD3 23-506, stated change not applied): as the sequence (G5ECD3 entry or part of it) above

`C[C@]12CC[C@@H](O)C[C@@H]1CC[C@@H]1[C@@H]2CC[C@]2(C)[C@@H](C(=O)CO)CC[C@@H]12` [5α-3α-THDOC]: in [1], the “positive modulation by neurosteroid” value is reported as “greatly-reduced positive modulation”.

The EC50 is the concentration giving half of the maximal effect. On to `CCCC(C)C1(CC)C(=O)NC(=O)NC1=O` (centres unmarked) [PB, pentobarbital], for which the EC50 in assay [2] was 369 ± 23.1 µM.

Take `CCCC(C)C1(CC)C(=O)NC(=O)NC1=O` (centres unmarked) [Pentobarbital]: at UNC-49B homomer [3], the pentobarbital enhancement result is recorded as “more strongly than UNC-49B/C heteromers”.

In the case of `CC(=O)[C@H]1CC[C@H]2[C@@H]3CC[C@@H]4C[C@H](O)CC[C@]4(C)[C@H]3CC[C@]12C` [pregnanolone], the figures for the “direct activation by pregnanolone” value at UNC-49B homomer [3] (UNC-49B homomer) and in the assay on B-β3 chimera were “fails to directly activate” and “directly activated”, respectively. Besides, the pregnanolone modulation entry is reported as “inhibits, rather than enhances” at UNC-49B homomer [3] (UNC-49B homomer); “enhanced” with B-β3 chimera; “inhibited” at UNC-49B homomer [4]; “inhibited” at UNC-49B/C heteromer [5].

On to picrotoxin [listing 1 of 2 here], for which the picrotoxin inhibition entry on UNC-49B homomer [3] (UNC-49B homomers) was “strongly inhibits”; at UNC-49B/C heteromer [6] it was “only weakly inhibits”. For the same compound, the picrotoxin sensitivity entry was “identical” at UNC-49B homomer [3] (wild-type UNC-49B compared with QF-R subunit and Y chimera (UNC-49B curve from Bamber et al. 2003)); “identical” on Y chimera; “identical” at QF-R. The “fold difference in picrotoxin sensitivity” value in the assay with UNC-49B-PS7 turned out to be 50 fold.

By IC50 is commonly meant the concentration needed to halve the response being measured. Read a low IC50 as greater potency. With picrotoxin [listing 2 of 2 here], the IC50 is 166 ± 42 µM in [7] and 0.89 ± 0.15 µM in assay [8].
